# According to ChEMBL document CHEMBL1145246, “Lactams as prostanoid receptor ligands. Part 4: 2-Piperidones as selective EP4 receptor agonists” (Bioorg Med Chem Lett, 2005):
# What was measured:
# [1] = biological target: Prostaglandin E2 receptor EP4 subtype (Homo sapiens, UniProt P35408); assay: Effective concentration required for prostanoid EP4 receptor activity was determined; type: functional
# [2] = Binding affinity for prostanoid EP4 receptor
# [3] = Binding affinity for prostanoid EP3 receptor
# [4] = Binding affinity for Prostanoid EP2 receptor
# [5] = Binding affinity for prostanoid EP2 receptor
# Prostaglandin E2 receptor EP4 subtype, sequence (P35408 whole entry): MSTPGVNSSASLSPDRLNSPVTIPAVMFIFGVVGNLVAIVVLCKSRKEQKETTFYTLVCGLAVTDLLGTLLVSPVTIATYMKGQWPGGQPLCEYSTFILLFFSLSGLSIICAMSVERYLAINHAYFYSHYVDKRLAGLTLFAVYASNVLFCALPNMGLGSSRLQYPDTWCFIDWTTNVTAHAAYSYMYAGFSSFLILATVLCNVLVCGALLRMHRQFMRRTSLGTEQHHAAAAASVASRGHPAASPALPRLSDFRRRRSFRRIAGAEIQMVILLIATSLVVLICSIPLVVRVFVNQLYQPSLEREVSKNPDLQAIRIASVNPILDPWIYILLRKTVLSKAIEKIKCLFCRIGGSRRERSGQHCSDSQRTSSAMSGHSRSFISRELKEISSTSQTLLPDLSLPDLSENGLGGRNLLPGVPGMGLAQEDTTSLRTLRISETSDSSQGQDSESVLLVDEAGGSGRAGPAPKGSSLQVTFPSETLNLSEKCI
EC50 [1],Ki [2],Ki [3],Ki [4],Ki [5],SMILES
0.19 µM,0.021 µM,> 10 µM,> 10 µM,–,O=C(O)CCCSCCN1C(=O)CCC[C@@H]1/C=C/[C@@H](O)CCC1CC1
1.73 µM,0.13 µM,–,–,> 10 µM,CC(C)c1cc(C[C@H](O)/C=C/[C@H]2CCCC(=O)N2CCCCCCC(=O)O)ccc1O
0.63 µM,0.105 µM,> 10 µM,–,> 10 µM,O=C(O)CCCSCCN1C(=O)CCC[C@@H]1CC[C@@H](O)c1ccc(C(F)(F)F)o1
0.29 µM,0.086 µM,–,–,> 10 µM,CCCCC(C)(C)C(O)/C=C/[C@H]1CCCC(=O)N1CCSCCCC(=O)O (some centres not stated)
21 µM,–,–,–,–,Cc1cc(O)ccc1-c1cccc(C(=O)CC[C@H]2CCCC(=O)N2CCCCCCC(=O)O)c1
0.26 µM,0.017 µM,> 10 µM,–,> 10 µM,O=C(O)CCCSCCN1C(=O)CCC[C@@H]1/C=C/C(O)C1(c2ccccc2)CC1 (some centres not stated)
0.0061 µM,0.0048 µM,> 10 µM,–,1.6 µM,Cc1cc(Cl)ccc1-c1cccc([C@H](O)CC[C@H]2CCCC(=O)N2CCSCCCC(=O)O)c1
0.28 µM,0.0074 µM,> 10 µM,–,> 10 µM,Cc1cc(C[C@H](O)/C=C/[C@H]2CCCC(=O)N2CCCCCCC(=O)O)ccc1O
0.044 µM,0.022 µM,> 10 µM,–,> 10 µM,COCc1cccc(C[C@H](O)/C=C/[C@H]2CCCC(=O)N2CCSCCCC(=O)O)c1
0.034 µM,0.0073 µM,> 10 µM,–,3.8 µM,O=C(O)CCCSCCN1C(=O)CCC[C@@H]1/C=C/[C@@H](O)CCC1CCC1
0.11 µM,0.025 µM,> 10 µM,–,> 10 µM,Cc1cc(O)ccc1-c1cccc([C@@H](O)CC[C@H]2CCCC(=O)N2CCCCCCC(=O)O)c1
0.044 µM,0.0087 µM,–,–,> 10 µM,COCc1cccc(C[C@H](O)/C=C/[C@H]2CCCC(=O)N2CCCCCCC(=O)O)c1
